Source: paper PMC5228037, “Discovery and Mechanistic Characterization of Selective Inhibitors of H2S-producing Enzyme: 3-Mercaptopyruvate Sulfurtransferase (3MST) Targeting Active-site Cysteine Persulfide” (Scientific Reports, 2017)

Target: T1, recombinant CBS (Rattus norvegicus, UniProt P32232)
T1 construct: GST (N, cleaved yes); made in house; host or cells: E. coli DH5α
T1 sequence (P32232 1-561): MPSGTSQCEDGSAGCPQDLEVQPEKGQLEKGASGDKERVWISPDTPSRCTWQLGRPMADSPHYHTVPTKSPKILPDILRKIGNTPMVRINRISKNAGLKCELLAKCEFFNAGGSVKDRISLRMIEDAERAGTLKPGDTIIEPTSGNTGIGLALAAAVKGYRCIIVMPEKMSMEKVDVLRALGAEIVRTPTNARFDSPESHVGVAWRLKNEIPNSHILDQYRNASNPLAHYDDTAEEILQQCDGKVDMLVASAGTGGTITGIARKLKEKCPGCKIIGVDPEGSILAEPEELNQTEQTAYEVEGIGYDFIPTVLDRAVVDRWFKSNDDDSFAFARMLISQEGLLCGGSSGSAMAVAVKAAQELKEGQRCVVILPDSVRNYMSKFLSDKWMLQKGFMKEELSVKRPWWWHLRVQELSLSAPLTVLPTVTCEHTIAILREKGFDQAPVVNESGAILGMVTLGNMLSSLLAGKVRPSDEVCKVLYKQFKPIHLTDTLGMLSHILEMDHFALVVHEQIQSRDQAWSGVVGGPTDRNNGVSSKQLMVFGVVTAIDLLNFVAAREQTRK
Assay: Inhibitory activity towards purified CBS by gas chromatography
Format: biochemical
Conditions: 100 μM compound, 10 mM L-cysteine and DL-homocysteine
Protocol: Figure 2 Selectivity assessment of hit compounds for 3MST over other H2S/polysulfides-producing enzymes and rhodanese. (a) 3MST-Inhibitory activity of hit compounds at 10 and 100 μM in cell lysate of 3MST-expressing HEK293 cells. 100 μM 3MP and 100 μM DTT were added to the solution containing 0.1% DMSO as a cosolvent, and the mixture was incubated at 37 °C for 15 min. H2S production was measured by gas chromatography. All data are presented as the mean ± S.D. (100 μM: n = 3 or 4; 10 μM: n = 3). (b) Selectivity assessment of hit compounds at 100 μM towards CBS and CSE. Only DMSO was added to the control sample instead of DMSO solution containing hit compounds. H2S production was monitored by gas chromatography. All data are presented as the mean (n = 3). (c) Detection method for rhodanese activity (Sörbo method). (d) Selectivity assessment of hit compounds towards rhodanese. The results are mean ± S.D. (n = 4, three times). These values were determined based upon the absorbance of [Fe(SCN)3] at 460 nm (Sӧrbo method). Bovine rhodanese 1.3–1.7 units/mL, substrate: 52 mM Na2S2O3, 50 mM KCN, 0.004% (w/v) BSA, 100 μM compound and DMSO 1% (v/v) in 88 mM potassium phosphate buffer (pH 8.6) at room temperature for 5 min incubation. (e) Fluorescence confocal microscopic images of live COS7 cells transfected with 3MST or an empty vector[9] as a control. Cells were incubated with 50 μM SSP4, a fluorescent probe for sulfane sulfur, and 10 μM, 1 μM, 0.5 μM, 0.1 or 0 μM compound 3 in DMEM containing 0.6% DMSO for 30 min, then washed with HBSS and placed in fresh DMEM with 0‒10 μM compound 3 (Pre). 500 μM 3MP was added to the cells and the cells were incubated for 10 min (10 min). (f) Graphic representation of (e). F/F0 was calculated by dividing the fluorescence intensity of cells after addition of 500 μM 3MP (10 min) by that of cells before addition of 500 μM 3MP (Pre), then the mean F/F0 was determined from 5 cells. All data represent the mean ± standard error of the mean (SEM) of three experiments.
GST-tagged rat CSE-HA or rat CBS-HA was expressed in E. coli DH5α as follows. E. coli DH5α transformed with the pGEX-rCSE-HA or pGEX-rCBS-HA plasmid was cultured overnight in LB medium containing 100 μg/mL ampicillin (and 0.3 mM 5-aminolevulinic acid, for CBS) at 37 °C, and the 120 mL culture was inoculated into 2400 mL of LB medium. Further growth of the culture was performed at 37 °C with vigorous shaking until OD600 reached 0.8. IPTG was added to the E. coli DH5α culture at a final concentration of 0.1 mM and incubation was continued at 18 °C. […]

Inhibition of recombinant CBS enzymatic activity (H2S production)	inhibition at 100 µM (read-out: Inhibition of recombinant CBS enzymatic activity (H2S production)) [%]	Compound
enhanced H2S production		Cc1sc2nc(SCC(=O)c3ccc(O)cc3O)[nH]c(=O)c2c1C [compound 2]
	~25	NC(=O)c1ccsc1NC(=O)CSc1nc2ccccc2c(=O)[nH]1 [compound 1]
enhancement of H2S production		O=C(O)c1cccc(NS(=O)(=O)c2ccccc2)c1 [compound 5]
almost inactive		Cc1cc(=O)[nH]c(SCC(=O)c2cccc3ccccc23)n1 [compound 3]
